The IC50 is the concentration at which inhibition is half-maximal. The EC50 is the midpoint of the concentration-response curve.

The target in one data set is HDAC1 (Homo sapiens, UniProt Q13547). Nature of the data set: Fluorescence-based biochemical HDAC enzyme inhibition assay (ZMAL substrate).
A further data set addresses HDAC2 (Homo sapiens, UniProt Q92769). The description is as above.
The test system of a further data set is HDAC6. More on the design: method as in earlier work. The following applies: Figure 1; ref 'Data taken from refs' (numbers not given); cited from earlier work.
The test system of the next data set is MV-3 cells. Nature of the data set: MTT cell viability (antiproliferative) assay. The following applies: Homo sapiens, read-out: MV-3 EC50 (MTT). The format is cell-based, human. The method, then: (§1) To evaluate the cytotoxicity of the selected HDAC inhibitors, compounds were tested for their antiproliferative activity against MV-3 and MDA-MB-231 cells using the MTT assay. […] MTT (3-(4,5-dimethylthiazol-2-yl)-2,5-diphenyltetrazolium bromide; Catalog# A2231; BioChemica, Applichem GmbH, Darmstadt, Germany) was utilized to measure the antiproliferative effect. Depending on the incubation time, 3000 MV-3 cells (72 h), 2000 MV-3 cells (96 h) or 1000 MV-3 cells (120 h) per well were seeded in 96-well plates (Starlab GmbH, Hamburg, Germany) with each well containing 199 μL of volume. […] Next, predilutions of the test compounds were prepared in DMSO. […] Subsequently, cells were treated with 1.0 μL of the dilution series of the test compounds. […] After removing the supernatant, formazan was solubilized in 200.0 μL DMSO. The absorbance was measured at 570 nm with background subtraction at 690 nm using a Multiskan microplate photometer (Thermo Fisher Scientific, Waltham, MA, USA). The obtained data were normalized to PBS, considering 100% viability.

Data set [1] relates to HDACs in MDA-MB-231 cells. Nature of the data set: HDAC whole cell inhibition assay. The following applies: for EC50: Homo sapiens, MDA-MB-231, light or radiation study, read-out: whole-cell HDAC inhibition EC50, MDA-MB-231.
Protocol: (§2) Furthermore, we determined the EC50 values in the nontumorigenic cell line HEK293 and in the hematological cancer cell line MM.1S.
(§3) For this purpose, 3-fold serial dilutions of test compounds (DMSO) were prepared and added at a volume of 0.5 μL to the cells. […] MAL was used in a final concentration of 0.3 mM in the respective cell culture medium with 0.5% IGEPAL CA-630 (Catalog# J61055, Alfa Aesar). […] The obtained data were normalized to vehicle treated cells, considering 100% enzyme activity. IC50 values were determined by generating dose–response curves using the four-parameter logistic equation (GraphPad Prism 8.0, San Diego, USA).
A further data set has as its target human recombinant HDAC3 (Homo sapiens, UniProt O15379). Nature of the data set: Fluorescence-based biochemical HDAC enzyme inhibition assay (ZMAL substrate).
The target in a further data set is T1, human recombinant HDAC6 (Homo sapiens, UniProt Q9UBN7).
T1 sequence (Q9UBN7 1-1215): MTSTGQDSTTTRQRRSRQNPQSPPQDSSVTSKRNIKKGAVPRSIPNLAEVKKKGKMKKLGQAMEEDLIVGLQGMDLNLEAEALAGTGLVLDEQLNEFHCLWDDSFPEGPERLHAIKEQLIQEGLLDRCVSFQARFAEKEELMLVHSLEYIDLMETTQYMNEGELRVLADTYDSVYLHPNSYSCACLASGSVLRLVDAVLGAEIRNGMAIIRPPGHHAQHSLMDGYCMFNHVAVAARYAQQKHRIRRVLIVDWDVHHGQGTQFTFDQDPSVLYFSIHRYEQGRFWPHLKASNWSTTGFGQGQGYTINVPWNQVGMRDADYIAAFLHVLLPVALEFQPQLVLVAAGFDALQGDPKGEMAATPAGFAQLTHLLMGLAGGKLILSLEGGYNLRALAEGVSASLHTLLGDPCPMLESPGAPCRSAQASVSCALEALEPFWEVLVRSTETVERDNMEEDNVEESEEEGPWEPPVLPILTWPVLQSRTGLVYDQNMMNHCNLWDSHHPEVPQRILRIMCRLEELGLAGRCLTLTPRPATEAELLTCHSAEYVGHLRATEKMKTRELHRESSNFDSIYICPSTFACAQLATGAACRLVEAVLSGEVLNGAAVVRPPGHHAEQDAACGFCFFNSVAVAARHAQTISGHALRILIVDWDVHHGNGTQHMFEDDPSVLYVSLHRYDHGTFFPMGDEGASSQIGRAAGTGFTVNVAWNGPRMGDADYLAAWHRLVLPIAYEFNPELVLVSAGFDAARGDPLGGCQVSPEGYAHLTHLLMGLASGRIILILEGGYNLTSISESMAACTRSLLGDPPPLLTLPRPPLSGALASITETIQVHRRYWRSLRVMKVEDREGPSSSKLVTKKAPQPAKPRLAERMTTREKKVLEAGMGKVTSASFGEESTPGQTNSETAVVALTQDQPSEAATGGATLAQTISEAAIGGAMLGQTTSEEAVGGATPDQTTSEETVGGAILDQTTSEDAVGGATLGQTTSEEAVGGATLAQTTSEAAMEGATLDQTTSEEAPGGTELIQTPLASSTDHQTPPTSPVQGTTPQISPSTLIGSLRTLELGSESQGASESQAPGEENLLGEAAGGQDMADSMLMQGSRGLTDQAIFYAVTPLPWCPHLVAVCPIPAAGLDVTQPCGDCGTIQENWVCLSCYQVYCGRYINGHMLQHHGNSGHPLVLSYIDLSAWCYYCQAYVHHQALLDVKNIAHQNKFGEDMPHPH
Described as above.

The next data set concerns MDA-MB-231 cells. Nature of the data set: MTT cell viability (antiproliferative) assay. The class given is cell-based. The following applies: Homo sapiens, MDA-MB-231, light or radiation study. Here is the method:
as §1

The test system of the next data set is HDACs in MV-3 cells. Nature of the data set: HDAC whole cell inhibition assay. The following applies: for EC50: Homo sapiens, MV-3, light or radiation study, read-out: whole-cell HDAC inhibition EC50, MV-3.
Data set [2] is described as follows: HPLC photolysis experiments (release of ST13 from ST17). The format is physicochemical. The following applies: 10 min. Here is the method: The deprotection of ST17 and its effective conversion (82%) to its parent HDAC inhibitor ST13 upon irradiation (10 min; λ = 365 nm) was confirmed by high-performance liquid chromatography (HPLC) experiments (see Figure S3, Supporting Information). Next, ST17 was tested for its inhibitory activity against HDAC1, HDAC2, HDAC3, and HDAC6 with and without irradiation at 365 nm (see Table ).
For the deprotection experiments, 10 μL of a 1 mM ST17 solution in DMSO were irradiated for 10 min. Subsequently, samples were diluted with acetonitrile to a final concentration of 100 μM and analyzed via HPLC/UV (λquant = 250 nm) using the area under the curve (area [mAU × min]) for quantification. The amount of ST13 released from the photocager ST17 was quantified using a calibration curve of ST13 (see Figure S2).

Where [3] appears, read: HDAC1 IC50, preincubation of enzyme and inhibitor 1 h at RT, no irradiation.
Where [4] appears, read: HDAC2 IC50, preincubation of enzyme and inhibitor 1 h at RT, no irradiation.

Where two headings read alike, the source gives them in different places. Bounds are passed on as bounds.

HDAC1, sequence (Q13547 whole entry): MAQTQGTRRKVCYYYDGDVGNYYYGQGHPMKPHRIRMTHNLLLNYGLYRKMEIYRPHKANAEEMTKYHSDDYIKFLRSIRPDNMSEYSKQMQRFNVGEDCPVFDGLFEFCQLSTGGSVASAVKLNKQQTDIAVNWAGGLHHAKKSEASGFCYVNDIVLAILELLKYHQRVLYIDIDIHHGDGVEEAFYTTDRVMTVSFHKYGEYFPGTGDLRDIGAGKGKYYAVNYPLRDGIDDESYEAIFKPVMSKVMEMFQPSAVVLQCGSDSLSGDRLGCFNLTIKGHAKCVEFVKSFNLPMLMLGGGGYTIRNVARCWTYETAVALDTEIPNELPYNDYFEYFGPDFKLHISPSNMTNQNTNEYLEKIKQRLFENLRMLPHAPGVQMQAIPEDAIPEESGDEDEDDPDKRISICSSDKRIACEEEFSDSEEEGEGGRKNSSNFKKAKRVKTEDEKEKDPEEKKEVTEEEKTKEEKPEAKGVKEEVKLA
HDAC2, sequence (Q92769 whole entry): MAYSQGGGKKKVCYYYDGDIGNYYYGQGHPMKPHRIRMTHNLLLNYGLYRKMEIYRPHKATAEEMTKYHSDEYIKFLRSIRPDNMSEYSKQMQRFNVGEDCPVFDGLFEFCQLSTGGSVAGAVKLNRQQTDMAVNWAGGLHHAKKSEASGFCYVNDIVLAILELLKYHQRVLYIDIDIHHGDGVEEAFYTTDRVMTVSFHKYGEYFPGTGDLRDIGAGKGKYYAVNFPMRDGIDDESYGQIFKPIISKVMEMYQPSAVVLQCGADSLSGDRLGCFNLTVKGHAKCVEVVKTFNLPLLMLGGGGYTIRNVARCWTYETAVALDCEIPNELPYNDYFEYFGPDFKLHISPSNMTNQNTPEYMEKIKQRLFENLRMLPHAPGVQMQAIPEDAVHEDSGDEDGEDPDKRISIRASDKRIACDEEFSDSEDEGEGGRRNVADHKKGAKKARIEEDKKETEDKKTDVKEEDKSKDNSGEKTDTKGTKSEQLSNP
human recombinant HDAC3, sequence (O15379 whole entry): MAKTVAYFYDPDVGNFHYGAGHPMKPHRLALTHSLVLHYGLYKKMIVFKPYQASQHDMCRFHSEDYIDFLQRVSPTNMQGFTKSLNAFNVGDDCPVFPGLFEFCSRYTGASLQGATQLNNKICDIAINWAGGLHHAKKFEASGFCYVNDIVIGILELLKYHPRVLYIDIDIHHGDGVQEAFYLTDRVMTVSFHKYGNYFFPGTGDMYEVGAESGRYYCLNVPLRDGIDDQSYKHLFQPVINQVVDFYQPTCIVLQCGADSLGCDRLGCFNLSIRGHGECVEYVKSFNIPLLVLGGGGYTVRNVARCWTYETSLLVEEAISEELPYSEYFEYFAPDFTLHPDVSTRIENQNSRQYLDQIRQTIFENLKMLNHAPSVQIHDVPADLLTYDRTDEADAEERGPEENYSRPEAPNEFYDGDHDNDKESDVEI
human recombinant HDAC3, sequence (Q9Y618 395-489 partner limits assumed): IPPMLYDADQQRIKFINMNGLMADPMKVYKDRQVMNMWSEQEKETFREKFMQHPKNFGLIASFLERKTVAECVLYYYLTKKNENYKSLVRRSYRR
Protocol for HDAC1: (§4) First, the inhibitory activity and isoform selectivity of compounds and controls (see Figure ) was evaluated in a fluorescence-based biochemical HDAC inhibition assay against recombinant HDAC1, HDAC2, HDAC3, and HDAC6. […] First, 3-fold serial dilutions of test compounds were prepared in DMSO. […] IC50 values were determined by generating normalized dose–response curves using the three-parameter logistic equation (GraphPad Prism 8.0, San Diego, USA).
Protocol for HDAC2: as §4
Protocol for HDACs in MV-3 cells: as §2, §3
Protocol for human recombinant HDAC3: as §4
Protocol for human recombinant HDAC6: as §4

For the compound `CC(=O)Nc1ccc(C(=O)Nc2ccccc2O)cc1` [ST01, 4-Acetamido-N-(2-hydroxyphenyl)-benzamide], the IC50 on HDAC1 (setting [3]) and against HDAC2 (setting [4]) was more than 10 µM throughout.
As to `CCCNNC(=O)c1ccc(CN(CC(=O)NCc2ccccc2)C(=O)c2ccc(N(C)C)cc2)cc1` [compound 5], in the data set on HDAC6, the IC50 is 10 µM.
Turning to `O=C(CCCCCCC(=O)Nc1ccccc1)NO` [vorinostat, reference compound], the EC50 with MV-3 cells (MV-3, 72 h) is 1.88 ± 0.73 µM.
Turning to `COc1cc(COc2ccc(-c3ccccc3)cc2NC(=O)c2ccc(NC(C)=O)cc2)c([N+](=O)[O-])cc1OC` [ST17, 4-Acetamido-N-(4-((4,5-dimethoxy-2-nitrobenzyl)-oxy)-[1,1′-biphenyl]-3-yl)-benzamide], the EC50 in data set [1] (18 h) came out at 3.55 ± 2 µM; in data set [1] it was 0.783 ± 0.139 µM; with MDA-MB-231 cells (incubation time 120 h, no irradiation), 11.2 ± 1.7 µM; in the data set on MDA-MB-231 cells (with UV irradiation (10 min, 365 nm) of ST17, 120 h), 6.78 ± 0.58 µM; in the data set with MV-3 cells (MV-3, light or radiation study, incubation time 120 h, no irradiation), 16.2 ± 4.1 µM; in the data set with MV-3 cells (MV-3, light or radiation study, with UV irradiation (10 min, 365 nm) of ST17, 120 h) it was 4.64 ± 0.93 µM. Also, the figures for the EC50 with HDACs in MV-3 cells (18 h) and in the data set with HDACs in MV-3 cells were 5.98 ± 1.24 µM and 0.392 ± 0.07 µM, respectively. In addition, the “increase of activity by light-induced activation compared to untreated ST17, MDA-MB-231” value in [1] (whole cell HDAC assay) was determined as 4.5 fold. Besides, the IC50 at human recombinant HDAC3 (HDAC3 IC50, preincubation of enzyme and inhibitor 1 h at RT, no irradiation) was more than 10 µM; at human recombinant HDAC3 (HDAC3 IC50, with UV irradiation (10 min, 365 nm) of ST17, preincubation 1 h at RT), 8.58 ± 0.76 µM; at HDAC1 (setting [3]), 0.84 ± 0.308 µM; on HDAC1 (HDAC1 IC50, with UV irradiation (10 min, 365 nm) of ST17, preincubation 1 h at RT), 0.04 ± 0.008 µM; on human recombinant HDAC6, more than 10 µM; at human recombinant HDAC6 (read-out: HDAC6 IC50, with UV irradiation (10 min, 365 nm) of ST17, preincubation 15 min at RT), more than 10 µM. Besides, the IC50 on HDAC2 (setting [4]) came out at 1.71 ± 0.83 µM; against HDAC2 (HDAC2 IC50, with UV irradiation (10 min, 365 nm) of ST17, preincubation 1 h at RT), 0.072 ± 0.012 µM. The “increase of activity by light-induced activation compared to untreated ST17, MV-3” value in the data set on HDACs in MV-3 cells (whole cell HDAC assay) came out at 15 fold. In data set [2] (λ = 365 nm, in DMSO, room temperature), the “conversion to parent HDAC inhibitor ST13 upon irradiation (HPLC)” value came out at 82%. The “concentration of released ST13 following irradiation (HPLC)” value in data set [2] (initial ST17 concentration 100 µM, 365 nm) stood at 81.67 µM.

The values are drawn from paper PMC12706802, “Ortho-Hydroxyanilides: Slow-Acting, Selective Histone Deacetylase 1/2 Inhibitors Suitable for Photocaging Applications” (ACS Pharmacology & Translational Science, 2025).
